Experimental data from patent publication US20240207262A1, “PROPHYLACTIC AND/OR THERAPEUTIC AGENT FOR AMYOTROPHIC LATERAL SCLEROSIS” (NATIONAL UNIVERSITY CORPORATION TOKAI NATIONAL HIGHER …, priority 2021, published 2024).

Legend:
[1] = test system: NSC34 cells (mouse motor neuron) expressing TDP-43^A315T; test: WST cell viability assay, NSC34 cells transfected with TDP-43^A315T; assay type: cell-based; settings: for Viability (TDP-43^A315T): ratio of maximum viability to viability at 0 μM
Experimental: (§1) A pathological cell model was created by transient forced expression of the following genes in NSC34 cells (mouse motor neuron) by transfecting the cells with a plasmid using Lipofectamine 2000 (R) (Thermo Fisher Scientific), and changes in cell viability due to drug administration were analyzed by WST assay.
(§2) • Day 0: NSC 34 cell culture (DMEM FBS 10%) • Day 1: Transfection (Cells were transfected with a plasmid having the following genes inserted by using Lipofectamine 2000 (R) (Thermo Fisher Scientific).) • 1. Mock (unmutated cells: control plasmid-transfected cells) • 2. TDP-43^A315T: TDP-43 mutation model (reflecting human pathological conditions) • 3. SOD1^G93A: mutation SOD1 familial model (mutation common to humans and animal models) • Cell culture is continued afterward in FBS-free DMEM. • Day 4: Drug administration • Day 5: WST assay (Cell viability is measured to determine the effect of drug administration.)
(§3) Two types of cellular models were used to bridge the gap between SOD1 transgenic mouse models and sporadic ALS human pathological conditions (TDP-43 cell model).
(§4) The viability indicates the ratio of maximum viability to viability at 0 μM. The […] PF-04457845 yielded a viability about 1.3 times the viability with the existing drug riluzole (control) at a concentration one-tenth the concentration of riluzole.

[2] = test system: NSC34 cells (mouse motor neuron) expressing SOD1^G93A; test: WST cell viability assay, NSC34 cells transfected with SOD1^G93A; assay type: cell-based; settings: for Viability (SOD1^G93A): ratio of maximum viability to viability at 0 μM
Experimental: as §1, §2, §3, §4

NSC34 cells = test: WST cell viability assay, NSC34 ALS model cells (model not given); assay type: cell-based, mouse
Experimental: as §1, §2
The experimental conditions are those described in FIG. 3.

[3] = test system: SOD1^G93A transgenic mice; test: Survival analysis in SOD1^G93A transgenic mice; assay type: in vivo, mouse; settings: 1 mg/kg/day mixed in diet from 8 weeks of age, vs control diet; log rank test p<0.001
Experimental: (§5) PF-04457845 was mixed in the diet, and administration started at 8 weeks of age. […] Drug efficacy analysis was conducted using body weight, motion analysis based on the Rotarod test (measured once a week), and survival analysis.
An ALS model animal with mutation of SOD1 gene, which is responsible for familial ALS, was used to conduct efficacy analysis of PF-04457845. The control was one that was free of the drug.
(§6) • Week 0: • Week 6: 1. Body weight, 2. Rotarod test (the method for measuring the motor function of mice) • Week 8: The drug (PF-04457845) was mixed with the diet, and administration started. • Week 9-10: Onset • Around week 17-20: Survival analysis
(§7) PF-04457845 was administered at a dose of 1 mg/kg/day. The dosage was determined based on a previous report on administration to rats (Ahn K et al. Journal of Pharmacology and Experimental Therapeutics 2011: 338; 114-124).
In accordance with the method shown in FIG. 6, survival analysis was performed. • ♂ (male), PF-04457845: n=8, Control: […] • ♀ (female), PF-04457845: n=8, Control: n=13 • Log rank test p<0.001

[4] = Body weight of SOD1^G93A transgenic mice; assay type: in vivo, mouse; settings: 1 mg/kg/day in diet, vs control diet; 2-way ANOVA; trend toward limiting weight loss
Experimental: as §5, §6, §7

[5] = test system: SOD1^G93A transgenic mice; test: Rotarod test (motion analysis) in SOD1^G93A transgenic mice; assay type: in vivo, mouse; settings: 1 mg/kg/day in diet, vs control diet; 2-way ANOVA, p=0.002
Experimental: as §5, §6, §7

[6] = test system: mouse spinal cord motor neurons; test: Spinal cord ChAT staining (motor neurons) in SOD1^G93A transgenic mice; assay type: in vivo
Experimental: as §5
In accordance with the method shown in FIG. 6, the drug was administered, and the pathological specimens of mouse spinal cords in an advanced stage of the disease were subjected to ChAT staining (motor neuron).
19W and 22W PF-04457845-administered mouse spinal cords were compared with a 19W control-administered mouse spinal cord.
The photographs are of a 22W PF-04457845-administered mouse spinal cord and a 19W control-administered mouse spinal cord.
(§8) A 16W PF-04457845-administered mouse spinal cord was compared with a 16W control-administered mouse spinal cord.
The photographs are of the 16W PF-04457845-administered mouse spinal cord and 16W control-administered mouse spinal cord.

astrocytes = test: Spinal cord GFAP staining in SOD1^G93A transgenic mice; assay type: in vivo; settings: 16W treated vs 16W control mouse spinal cord
Experimental: as §5, §8

microglia = test: Spinal cord Iba-1 staining in SOD1^G93A transgenic mice; assay type: in vivo; settings: 16W treated vs 16W control mouse spinal cord
Experimental: as §5, §8

mouse spinal cords = test: Mouse spinal cord RNA sequencing (GO and IPA analysis) in SOD1^G93A transgenic mice; assay type: in vivo; settings: 16 weeks of age, drug diet vs control diet
Experimental: The experiment of PF-04457845 administration to SOD1^G93A transgenic mice was continued, and RNA sequencing of the spinal cord was performed on mice treated with a drug-infused diet and mice treated with a control diet, both at 16 weeks of age.
GO analysis: This is a method for analyzing a group of genes that have many variable genes when genes are grouped according to their functionality among mRNAs whose RNA sequences show changes.
IPA analysis: An analysis to explore the association of known pathways, upstream factors, and toxicity with disease.

Row | SMILES | Improving cell viability, TDP-43 mutation (A315T) cell model ([1]; 10 nM) | Viability (TDP-43^A315T) ([1]; concentration 10 nM) | Improving cell viability, SOD1 (G93A) mutation cell model ([2]; 10 nM) | Viability (SOD1^G93A) ([2]; concentration 10 nM) | Viability relative to the viability with riluzole (control) (NSC34 cells; at a concentration one-tenth the concentration of riluzole) | Improving effect on cell viability compared with other FAAH inhibitors (NSC34 cells; vs PF-3845, arachidonoyl serotonin, FAAH inhibitor II, conditions of FIG. 3) | Survival period [3] | Body weight [4] | Rotarod test (motor function) [5] | ChAT-positive motor neuron count in spinal cord ([6]; 16W treated mice vs 16W control mice) | ChAT-positive motor neuron count in spinal cord ([6]; 19W and 22W treated mice vs 19W control mice, advanced stage) | GFAP staining: proliferation of astrocytes (astrocytes) | Iba-1 staining: proliferation of microglia (microglia) | Expression of CD36 in mouse spinal cords (mouse spinal cords) | Expression of Pla2g3 in mouse spinal cords (mouse spinal cords) | Expression of lipoprotein lipase (Lpl) in mouse spinal cords (mouse spinal cords) | IL-13 signaling pathway (IPA analysis) (mouse spinal cords) | Viability (TDP-43^A315T) ([1]; concentration 0.1 μM) | Viability (SOD1^G93A) ([2]; concentration 0.1 μM)
1 | O=C(Nc1cccnn1)N1CCC(=Cc2cccc(Oc3ccc(C(F)(F)F)cn3)c2)CC1 [PF-04457845, N-pyridazin-3-yl-4-(3-{[5-(trifluoromethyl)pyridin-2-yl]oxy}benzylidene) piperidine-1-carboxamide] | highly effective in improving the cell viability | 1.31 | highly effective in improving the cell viability | 1.26 | about 1.3 times | more effective in improving cell viability | effect of prolonging the survival period was observed | no significant difference in body weight | significant progression-inhibiting effect | effect of limiting the decrease in motor neuron count | effect of limiting the decrease in motor neuron count | effect of inhibiting the proliferation of astrocytes | effect of inhibiting the proliferation of microglia | increased | decreased | increased | activation of IL-13 signaling pathway |  | 
2 | Nc1nc2ccc(OC(F)(F)F)cc2s1 [Riluzole, riluzole] |  |  |  |  |  |  |  |  |  |  |  |  |  |  |  |  |  | 1.03 | 1.00
